Measurements as given in patent publication US9044403B2, “Sporicidal hand sanitizing lotion” (Medivators Inc., priority 2008, dated 2015).

test: Fragrance screen for chemical compatibility with a PAA solution; format: physicochemical
Experimental: A number of fragrances were tested with a PAA solution to screen for chemical compatibility. […] Additionally, “Blackberry Sage Tea” fragrance in combination with the vinegar-like order from the PAA in the sample was not appealing to volunteers who agreed to sample the sample lotion formulation.

| Time within which the fragrance degrades PAA | SMILES |
| --- | --- |
| 3 to 5 days | CC/C=C\CCO [cis-3-hexen-1-ol] |
| 3 to 5 days | CC(=O)OCCC(C)CCC=C(C)C (stereo not drawn) [citronellyl acetate] |
| 3 to 5 days | CC(=O)OC/C=C(/C)CCC=C(C)C [neryl acetate] |
